The values below come from US11229675B2, “Therapeutic peptides for excitatory neurotoxicity-related injuries” (Biocells (Beijing) Biotech Co., Ltd., priority 2016, dated 2022).

Data set [1] has as its system MCAO model rats. The experiment in a line: Cerebral infarction volume (TTC staining) in MCAO model rats. The note with it: rat, in vivo. As to the method: The focal cerebral ischemia-reperfusion model was prepared according to the reversible middle cerebral artery occlusion (MCAO) suture method proposed by Longa with modifications in view of the anatomical structure of the rat brain. The rats were anesthetized by intraperitoneal administration of 10% chloral hydrate at a dose of […]. After anesthetization, a cut was created at the cervical midline, and the common carotid artery (CCA), external carotid artery (ECA) and pterygopalatine artery were exposed. The head portion (0.5 cm) of a monofilament nylon fishing line (0.26 mm) was coated with paraffin and a mark was made at 20 mm. All rats were inserted through the right CCA incision, and the pterygopalatine artery was temporarily clamped to prevent mis-insertion. The length of the occlusion line was about 18-20 mm from the bifurcation of CCA depending on the animal's weight, thereby occluding middle cerebral artery on the right side. The skin was then sewed, and the tail end of the occlusion line was partially fixed to the skin. After a period of ischemia for 2 hours, the occlusion line was carefully pulled out to form a reperfusion. The procedure steps for the sham control were the same as the surgery group, except for insertion of a nylon fishing line. The body temperature was maintained at 37±0.5° C. during the ischemia period and 2 h after reperfusion.
The used animals were male adult SD rats (Vittalia) of SPF grade with body weight of 220-250 g.
No drugs were administered to the normal group and the sham group.
The rats were sacrificed by decapitation after scoring. The brain tissues were quickly removed and placed in a refrigerator at −20° C. After 10 minutes, the tissues were placed in a room temperature environment. The brains were placed in a rat brain section mold. After the olfactory bulb, cerebellum and low brain stem were removed, the brains were coronally cut five times at 2 mm thickness as shown in the profile to obtain six continuous raw coronal slices. Then, the brain sections were quickly placed in a 5 ml solution containing 2% TTC, and incubated at 37° C. for 30 minutes in the dark, during which the brain sections were flipped once every 5 minutes. With the TTC staining, the normal tissue would be rose red, and the infarcted tissue would be unstained and retained white. Each group of brain sections was arranged neatly, and photographed. The photos were processed by an image analysis system software and statistically analyzed. The infarction area of each brain section was calculated, and multiplied by the thickness of each brain section (2 mm). The products of the infarction area of individual brain section multiplied by the thickness were summed to obtain the cerebral infarction volume for each animal. The volumes were expressed as percentages accounting for the cerebral hemisphere to eliminate the effects of cerebral edema.

In a further data set the test system is rats. The experiment in a line: Acute toxicity test on rats. The note with it: 200 mg/kg body weight. The data set is classed as in vivo, rat. As to the method:
Acute toxicity tests were performed on rats.

Data set [2] relates to MCAO model rats. Nature of the data set: HE staining for histological changes in brains of MCAO rats. It is filed as in vivo, rat. Particulars: therapeutic and prophylactic administration, 10 mg/kg, 24 h after ischemia. As to the method: The rats in each group were decapitated at 24 h after ischemia, and the resultant brain was coronally sectioned near the optic chiasm with a thickness of about 4 mm. The sections were fixed with 10% formalin solution and dehydrated with alcohol with a concentration gradient from 70% to 100%. The sections were permeabilized twice in xylene, and embedded in paraffin. The paraffin block was carefully trimmed, and immobilized on a paraffin slicing machine, and sliced to sections with a thickness of 4 μm. The paraffin sections were completely unfolded, attached to a clean and dry glass slide, and stored in a refrigerator at 4° C. Conventional HE staining was performed, and the staining results were observed by light microscopy.

“And” between values parts separate entries of the source, which are not always exact repeats. Equal values may be shown once. Where no end group is shown, it is not given here.

Take “YGRKKRRQRRRKLSSIESDV [NA-1, reference compound]”: in the data set with MCAO model rats [1], the “Mean of infarction volume percentage” value came to 38.56%.

On to “YGRKKRRQRRRYEKLSSIESDV [YE-NA-1, reference compound]”, for which the “Mean of infarction volume percentage” value in the data set on MCAO model rats [1] turned out to be 33.96%.

On to `CC[C@H](C)[C@H](NC(=O)[C@H](CCC(=O)O)NC(=O)[C@@H](NC(=O)[C@H](CC(=O)O)NC(=O)[C@H](CC(C)C)NC(=O)[C@H](CC(C)C)NC(=O)[C@H](CCCCN)NC(=O)[C@H](CCC(=O)O)NC(=O)[C@H](Cc1ccc(O)cc1)NC(=O)[C@H](CCCNC(=N)N)NC(=O)[C@H](CCCNC(=N)N)NC(=O)[C@H](CCCNC(=N)N)NC(=O)[C@H](CCC(N)=O)NC(=O)[C@H](CCCNC(=N)N)NC(=O)[C@H](CCCNC(=N)N)NC(=O)[C@H](CCCCN)NC(=O)[C@H](CCCCN)NC(=O)[C@H](CCCNC(=N)N)NC(=O)CNC(=O)[C@@H](N)Cc1ccc(O)cc1)[C@@H](C)O)C(=O)O` [P5], for which the acute toxicity result in the data set on rats is “no lethal effect and other obvious toxic side effects”. Also, in the data set with MCAO model rats [2], the “pathological changes of brain tissue (HE staining)” value was “significantly improved”. Besides, the “Mean of infarction volume percentage” value in the data set with MCAO model rats [1] is 24.84% and 36.54% and 43.22%. In addition, in the data set with MCAO model rats [1] (1 mg/kg), the “Mean of infarction volume percentage” value worked out at 44.23% and the “Reduction of infarction volume percentage vs model group” value amounted to 3.76%. Further, in the data set with MCAO model rats [1] (3 mg/kg), the “Mean of infarction volume percentage” value stood at 35.66%, the “Reduction of infarction volume percentage vs model group” value was 22.41% and the “effect on cerebral infarction volume” value is on record as “desirably reduced the cerebral infarction volume”. Also, in the data set on MCAO model rats [1] (10 mg/kg), the “Mean of infarction volume percentage” value is 19.54%, the “Reduction of infarction volume percentage vs model group” value was 57.48% and the “reduction of cerebral infarction volume” value is “about 50%”.
